In data set [1] the target is T1, rat mGluR5 receptor (Rattus norvegicus, UniProt P31424).
T1 construct: expressed in transfected cells
Description: mGluR5 assay on HEK-expressing rat mGluR5 (fluorescent cell based Ca2+ mobilization assay). The conditions noted are these: HEK-293 cells stably expressing rat mGluR5; no co-addition of glutamate; mean of at least three independent experiments in duplicate; read-out: Ca++ Flux (mean EC50). On the procedure: Positive functional expression of HEK-293 cells stably expressing rat mGluR5 receptor was determined by measuring intracellular Ca^2+ changes using a Fluorometric Imaging Plate Reader (FLIPR, Molecular Devices, Sunnyvale, Calif.) in response to glutamate or selective known mGluR5 agonists and antagonists. Rat mGluR5 RT-PCR products in HEK-293 cells were sequenced and found 100% identical to rat mGluR5 Genbank reference sequence (NM_017012). HEK-293 cells expressing rmGluR5 were maintained in media containing DMEM, dialyzed Fetal Bovine Serum (10%), Glutamax™ (2 mM), Penicillin (100 units/ml), Streptomycin (100 μg/ml), Geneticin (100 μg/ml) and Hygromycin-B (40 μg/ml) at 37° C./5% CO2.
After one day of incubation, cells were washed with assay buffer containing: 142 mM NaCl, 6 mM KCl, 1 mM Mg2SO4, 1 mM CaCl2, 20 mM HEPES, 1 g/L glucose, 0.125 mM sulfinpyrazone, pH 7.4. After 60 min of loading with 4 uM Fluo-4 (TefLabs, Austin, Tex.), the cells were washed three times with 50 μl of PBS Buffer and resuspended in […] of assay Buffer. The plates were then transferred to a Fluorometric Imaging Plate Reader (FLIPR, Molecular Devices, Sunnyvale, Calif.) for the assessment of intracellular calcium flux. After monitoring the baseline fluorescence for 10 seconds, increasing concentrations of representative compound (from 0.01 to 60 μM) of the present invention diluted in Assay Buffer (15 μl of 4× dilutions) was added to the cell. The final DMSO concentration in the assay was 0.3%. In each experiment, fluorescence was then monitored as a function of time for 3 minutes and the data analyzed using Microsoft Excel and GraphPad Prism. Each data point was also measured two times.
Under these experimental conditions, this HEK-rat mGluR5 cell line is able to directly detect positive allosteric modulators without the need of co-addition of glutamate or mGluR5 agonist.
The concentration-response curves of representative compounds of the present invention were generated using the Prism GraphPad software (Graph Pad Inc, San Diego, USA). The curves were fitted to a four-parameter logistic equation:
(Y=Bottom+(Top-Bottom)/(1+10̂((Log EC50−X)*Hill Slope)
allowing determination of EC50 values.
The Table 1 below represents the mean EC50 obtained from at least three independent experiments of selected molecules performed in duplicate.

T1 sequence (P31424 21-1171 isoform P31424-2 limits assumed): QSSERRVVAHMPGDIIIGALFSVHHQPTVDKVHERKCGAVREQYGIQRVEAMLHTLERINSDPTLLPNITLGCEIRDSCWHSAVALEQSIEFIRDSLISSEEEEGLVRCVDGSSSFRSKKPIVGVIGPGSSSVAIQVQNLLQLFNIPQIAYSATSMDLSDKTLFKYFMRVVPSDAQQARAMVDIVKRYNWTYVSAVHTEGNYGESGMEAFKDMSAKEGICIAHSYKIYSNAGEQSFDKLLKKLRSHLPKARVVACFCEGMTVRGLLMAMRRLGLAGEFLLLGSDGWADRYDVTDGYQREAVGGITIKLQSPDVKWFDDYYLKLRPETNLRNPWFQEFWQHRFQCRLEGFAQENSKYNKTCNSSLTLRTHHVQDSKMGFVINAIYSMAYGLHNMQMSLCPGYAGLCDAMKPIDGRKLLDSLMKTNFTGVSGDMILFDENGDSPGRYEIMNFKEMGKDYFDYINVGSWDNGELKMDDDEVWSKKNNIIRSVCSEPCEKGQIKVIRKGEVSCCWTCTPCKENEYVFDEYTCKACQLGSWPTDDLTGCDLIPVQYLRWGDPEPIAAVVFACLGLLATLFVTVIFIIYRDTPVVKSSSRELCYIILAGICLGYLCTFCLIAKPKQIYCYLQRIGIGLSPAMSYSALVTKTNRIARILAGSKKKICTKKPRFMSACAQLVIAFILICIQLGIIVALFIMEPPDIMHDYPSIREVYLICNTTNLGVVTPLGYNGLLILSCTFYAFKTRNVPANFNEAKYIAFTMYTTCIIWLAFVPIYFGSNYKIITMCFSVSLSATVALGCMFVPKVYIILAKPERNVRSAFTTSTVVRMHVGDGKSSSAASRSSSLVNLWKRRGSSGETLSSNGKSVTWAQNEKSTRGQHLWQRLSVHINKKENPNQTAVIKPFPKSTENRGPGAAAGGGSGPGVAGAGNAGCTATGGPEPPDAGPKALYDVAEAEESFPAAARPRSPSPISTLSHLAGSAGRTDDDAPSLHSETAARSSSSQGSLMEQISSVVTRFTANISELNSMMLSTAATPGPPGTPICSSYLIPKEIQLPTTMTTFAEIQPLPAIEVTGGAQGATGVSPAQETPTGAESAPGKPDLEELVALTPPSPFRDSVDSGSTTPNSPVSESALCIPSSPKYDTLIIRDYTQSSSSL

Consider `O=C(c1ccc(F)c(F)c1)N1CCCC(c2noc(-c3ccccc3)n2)C1` (stereo not drawn) [Example 32, (3,4-Difluoro-phenyl)-[3-(5-phenyl-[1,2,4]oxadiazol-3-yl)-piperidin-1-yl]-methanone], for which the melting point fell in the range of 116 to 118 °C. Moreover, the EC50 in data set [1] is less than 1000 nM. Take `O=C(c1c(F)cc(F)cc1F)N1CCC[C@H](c2noc(-c3ccccn3)n2)C1` [Example 51, [(S)-3-(5-Pyridin-2-yl-[1,2,4]oxadiazol-3-yl)-piperidin-1-yl]-(2,4,6-trifluoro-phenyl)-methanone]: the 50% effective concentration (EC50) in data set [1] was less than 1000 nM. In the case of `O=C(c1ccncc1F)N1CCC[C@H](c2noc(-c3ccc(F)cc3)n2)C1` [Example 41, {(S)-3-[5-(4-Fluoro-phenyl)-[1,2,4]oxadiazol-3-yl]-piperidin-1-yl}-(3-fluoro-pyridin-4-yl)-methanone], the EC50 in data set [1] was less than 1000 nM.

On to `Cc1cc(F)ccc1C(=O)N1CCCC(c2noc(-c3ccc(F)cc3F)n2)C1` (stereo not drawn) [Example 31, {3-[5-(2,4-Difluoro-phenyl)-[1,2,4]oxadiazol-3-yl]-piperidin-1-yl}-(4-fluoro-2-methyl-phenyl)-methanone], for which the melting point came out at 110 °C. Moreover, in data set [1], the EC50 fell in the range of 1000 to 10000 nM. Turning to `O=C(c1ccc(F)c(F)c1)N1CCC[C@H](c2noc(-c3ccccn3)n2)C1` [Example 47, (S)-(3,4-Difluorophenyl)-{3-[5-(pyridin-2-yl)-[1,2,4]oxadiazol-3-yl]-piperidin-1-yl}-methanone], in data set [1], the half-maximal effective concentration (EC50) is less than 1000 nM.

Take `Cc1cc(F)ccc1C(=O)N1CCCC(c2noc(-c3ccccc3F)n2)C1` (stereo not drawn) [Example 23, (4-Fluoro-2-methyl-phenyl)-{3-[5-(2-fluoro-phenyl)-[1,2,4]oxadiazol-3-yl]-piperidin-1-yl}-methanone]: the EC50 in data set [1] lay within 1000 to 10000 nM. Same read-out and setting: the same measure for `O=C(c1ccc(F)cc1)N1CCC[C@H](c2noc(-c3ccncc3F)n2)C1` [Example 49, (4-Fluoro-phenyl)-{(S)-3-[5-(3-fluoro-pyridin-4-yl)-[1,2,4]oxadiazol-3-yl]-piperidin-1-yl}-methanone]: 1000 to 10000 nM; for `O=C(c1ccc(F)cc1)N1CCCC(c2noc(-c3ccccc3)n2)C1` (stereo not drawn) [Example 26, (4-Fluoro-phenyl)-[3-(5-phenyl-[1,2,4]oxadiazol-3-yl)-piperidin-1-yl]-methanone]: less than 1000 nM. The compound `O=C(c1ccc(F)cc1)N1CCCC(c2noc(-c3ccc(F)cc3F)n2)C1` (stereo not drawn) [Example 13, {3-[5-(2,4-Difluoro-phenyl)-[1,2,4]oxadiazol-3-yl]-piperidin-1-yl}-(4-fluoro-phenyl)-methanone] had a melting point of 88 °C. Besides, the EC50 in data set [1] was less than 1000 nM. For the compound `Cn1cnc(-c2nc([C@H]3CCCN(C(=O)c4ccc(F)cc4)C3)no2)c1` [Example 48, (4-Fluoro-phenyl)-{(S)-3-[5-(1-methyl-1H-imidazol-4-yl)-[1,2,4]oxadiazol-3-yl]-piperidin-1-yl}-methanone], in data set [1], the EC50 is greater than 10000 nM. Turning to `O=C(c1ccc(F)nc1)N1CCCC(c2noc(-c3ccncc3)n2)C1` (stereo not drawn) [Example 21, (6-Fluoro-pyridin-3-yl)-[3-(5-pyridin-4-yl-[1,2,4]oxadiazol-3-yl)-piperidin-1-yl]-methanone], the melting point lay in the range of 132 to 134 °C. In addition, the EC50 in data set [1] is 1000 to 10000 nM. Consider `O=C(c1ccc(F)cc1)N1CCCC(c2noc(C3CCCC3)n2)C1` (stereo not drawn) [Example 35, (4-Fluoro-phenyl)-[3-(5-cyclopentyl-[1,2,4]oxadiazol-3-yl)-piperidin-1-yl]-methanone], for which, in data set [1], the EC50 was 1000 to 10000 nM.

In the case of `Cc1noc(C)c1C(=O)N1CCC[C@H](c2noc(-c3ccc(F)cc3)n2)C1` [Example 38, (3,5-Dimethyl-isoxazol-4-yl)-{(S)-3-[5-(4-fluoro-phenyl)-[1,2,4]oxadiazol-3-yl]-piperidin-1-yl}-methanone], the melting point was 85 °C. The 50% effective concentration (EC50) in data set [1] is less than 1000 nM. Taken in the same sequence, the figures for `O=C(c1ccc(F)c(F)c1)N1CCC[C@H](c2noc(-c3ccc(F)cc3)n2)C1` [Example 37, (3,4-Difluoro-phenyl)-{(S)-3-[5-(4-fluoro-phenyl)-[1,2,4]oxadiazol-3-yl]-piperidin-1-yl}-methanone] were 120 °C and less than 1000 nM.

The compound `Cc1cc(F)ccc1C(=O)N1CCCC(c2noc(-c3ccc(F)cc3)n2)C1` (stereo not drawn) [Example 27, (4-Fluoro-2-methyl-phenyl)-{3-[5-(4-fluoro-phenyl)-[1,2,4]oxadiazol-3-yl]-piperidin-1-yl}-methanone] registered a melting point of 129 to 131 °C. Also, the EC50 in data set [1] was in the range of 1000 to 10000 nM.

`Cc1cc(F)ccc1C(=O)N1CCCC(c2noc(-c3ccccc3)n2)C1` (stereo not drawn) [Example 34, (4-Fluoro-2-methyl-phenyl)-[3-(5-phenyl-[1,2,4]oxadiazol-3-yl)-piperidin-1-yl]-methanone]: the EC50 in data set [1] lay within 1000 to 10000 nM. Same read-out and setting: in the case of `O=C(c1c(F)cccc1F)N1CCC[C@H](c2noc(-c3ccccn3)n2)C1` [Example 53, (2,6-Difluoro-phenyl)-[(S)-3-(5-pyridin-2-yl-[1,2,4]oxadiazol-3-yl)-piperidin-1-yl]-methanone] it was 1000 to 10000 nM. Still for that read-out and setting: the same measure for `O=C(c1ccc(F)c(F)c1F)N1CCC[C@H](c2noc(-c3ccccn3)n2)C1` [Example 52, [(S)-3-(5-Pyridin-2-yl-[1,2,4]oxadiazol-3-yl)-piperidin-1-yl]-(2,3,4-trifluoro-phenyl)-methanone]: less than 1000 nM. On the same count and under the same terms, in the case of `O=C(c1cccc(F)c1F)N1CCC[C@H](c2noc(-c3ccccn3)n2)C1` [Example 55, (2,3-Difluoro-phenyl)-[(S)-3-(5-pyridin-2-yl-[1,2,4]oxadiazol-3-yl)-piperidin-1-yl]-methanone] it was 1000 to 10000 nM; in that of `O=C(c1cncc(F)c1)N1CCC[C@H](c2noc(-c3ccc(F)cc3)n2)C1` [Example 43, {(S)-3-[5-(4-Fluoro-phenyl)-[1,2,4]oxadiazol-3-yl]-piperidin-1-yl}-(5-fluoro-pyridin-3-yl)-methanone], 1000 to 10000 nM; in that of `O=C(c1ccc(F)cc1F)N1CCCC(c2noc(-c3ccccc3F)n2)C1` (stereo not drawn) [Example 4, (2,4-Difluoro-phenyl)-{3-[5-(2-fluoro-phenyl)-[1,2,4]oxadiazol-3-yl]-piperidin-1-yl}-methanone], less than 1000 nM. As for `Cc1cc(F)ccc1C(=O)N1CCCC(c2noc(-c3ccncc3)n2)C1` (stereo not drawn) [Example 22, (4-Fluoro-2-methyl-phenyl)-[3-(5-pyridin-4-yl-[1,2,4]oxadiazol-3-yl)-piperidin-1-yl]-methanone], the concentration for a half-maximal effect (EC50) in data set [1] fell in the range of 1000 to 10000 nM.

Consider `O=C(c1ccc(F)cc1)N1CCC[C@H](c2noc(-c3ccccn3)n2)C1` [Example 46, (S)-(4-fluorophenyl)-{3-[5-(pyridin-2-yl)-[1,2,4]oxadiazol-3-yl]-piperidin-1-yl}-methanone], for which the EC50 in data set [1] fell in the range of 1000 to 10000 nM. Regarding `O=C(c1ccc(F)c(F)c1)N1CCC[C@H](c2noc(-c3ccncc3F)n2)C1` [Example 50, (3,4-Difluoro-phenyl)-{(S)-3-[5-(3-fluoro-pyridin-4-yl)-[1,2,4]oxadiazol-3-yl]-piperidin-1-yl}-methanone], in data set [1], the 50% effective concentration (EC50) was in the range of 1000 to 10000 nM.

As to `O=C(c1ccc(F)c(F)c1)N1CCC[C@H](c2noc(-c3ccc(F)cn3)n2)C1` [Example 45, (S)-(3,4-difluorophenyl)-{3-[5-(5-fluoropyridin-2-yl)-[1,2,4]oxadiazol-3-yl]-piperidin-1-yl}-methanone], the EC50 in data set [1] was less than 1000 nM. Same read-out and setting: in the case of `Cc1oncc1C(=O)N1CCCC(c2noc(-c3ccccc3F)n2)C1` (stereo not drawn) [Example 7, {3-[5-(2-Fluoro-phenyl)-[1,2,4]oxadiazol-3-yl]-piperidin-1-yl}-(5-methyl-isoxazol-4-yl)-methanone] it was less than 1000 nM; in that of `Cc1oncc1C(=O)N1CCCC(c2noc(-c3ccncc3)n2)C1` (stereo not drawn) [Example 20, (5-Methyl-isoxazol-4-yl)-[3-(5-pyridin-4-yl-[1,2,4]oxadiazol-3-yl)-piperidin-1-yl]-methanone], greater than 10000 nM; in that of `O=C(c1cc(F)ccc1F)N1CCC[C@H](c2noc(-c3ccccn3)n2)C1` [Example 54, (2,5-Difluoro-phenyl)-[(S)-3-(5-pyridin-2-yl-[1,2,4]oxadiazol-3-yl)-piperidin-1-yl]-methanone], less than 1000 nM.

Turning to `CNc1cc(F)ccc1C(=O)N1CCCC(c2noc(-c3ccccc3F)n2)C1` (stereo not drawn) [Example 5, (4-Fluoro-2-methylamino-phenyl)-{3-[5-(2-fluoro-phenyl)-[1,2,4]oxadiazol-3-yl]-piperidin-1-yl}-methanone], the 50% effective concentration (EC50) in data set [1] lay within 1000 to 10000 nM.
